# Values of other authors in article PMC10673369, “Preliminary SAR of Novel Pleuromutilin–Polyamine Conjugates” (Microorganisms, 2023).
# Assays:
# Parameters in all cases: method as in PMID 22191527, PMID 27742734, PMID 23836172, PMID 30019769
# [1] = test system: non-fastidious Gram-negative bacteria; conditions: cited from earlier work
# [2] = test system: fastidious Gram-negative bacteria, including Haemophilus influenza and Moraxella catarrhalis; conditions: incl. Haemophilus influenza and Moraxella catarrhalis; cited from earlier work
# [3] = test system: aerobic Gram-positive bacteria; conditions: incl. MRSA, VISA, hVISA, VRSA, PRSP, multidrug-resistant S. pneumoniae, VRE; cited from earlier work
compound,measurement,setting,value
"C=C[C@]1(C)C[C@@H](OC(=O)CS[C@@H]2CC[C@@H](N)C[C@H]2O)[C@]2(C)[C@H](C)CC[C@]3(CCC(=O)[C@H]32)[C@@H](C)[C@@H]1O [Compound 6, lefamulin]",Antibacterial activity against non-fastidious Gram-negative bacteria,[1],no activity
same,Antibacterial activity against fastidious Gram-negative bacteria,[2],favorable to moderate activity
same,Antibacterial activity against aerobic Gram-positive bacteria,[3],potent antibacterial activity
